Results reported in publication PMC9953701 (Biomedicines, 2023).
Like-named read-outs stand apart in the source and are kept apart here. No end group written: not given here.

Tests used:
[1] = cited from earlier work
Description: One of the major limitations of AMPs for clinical use is their inactivation by both endogenous human proteases and proteases secreted from invading microbes. From our previous studies, it was evident that KR-12 and truncated analogs degrade within 10 min in diluted human serum. More recently, we have shown that the KR-12 cyclic dimer peptides were stable for up to 6 h in diluted human serum but the recovery of LL-37 was very low during the precipitation step of the assay, either due to binding of LL-37 with serum components or rapid degradation. We also compared the stability pro ...

[2] = system: human red blood cells (RBCs); test: Hemolysis assay; assay type: cell-based; conditions: human RBCs 0.25% in PBS pH 7.4, 80 μM peptide (highest test concentration), 1 h, 37 °C, absorbance 405 nm, relative to 1% Triton X-100
Description: The hemolytic assay was conducted by preparing a stock solution of 320 μM peptides in MilliQ water and serially diluted in PBS to give 100 μL test solutions in a 96-well U-bottom microtiter plate (Nunc). Human-type RBCs (red blood cells) were collected from the donor, washed with PBS (pH 7.4) three times, and centrifuged at 1500× g for 60 s. A pellet of RBCs was resuspended to 0.25% (v/v) solution in PBS (pH 7.4). A 100 μL 0.25% suspension of washed RBCs in PBS was dispensed into each well containing serially diluted peptide solutions and incubated at 37 °C for 1 h. The 96-well plate was centrifuged at 150× g for 5 min and aliquots of 100 μL were transferred to a 96-well U-bottomed microtiter plate (Falcon) and the absorbance was measured at 405 nm with an automatic Multiskan Ascent plate reader (Labsystems). The amount of hemolysis was calculated as the percentage of maximum lysis (1% Triton X-100 control) after adjusting for minimum lysis (PBS control).

[3] = system: Bacillus cereus CCUG 7414T; assay type: cell-based; conditions: B. cereus; TSB, Tryptic Soy broth (rich media, unbuffered)
[4] = system: Bacillus subtilis CCUG 163BT; assay type: cell-based; conditions: B. subtilis; TSB, Tryptic Soy broth (rich media, unbuffered)
[5] = system: Bacillus subtilis CCUG 163BT; assay type: cell-based
Description: (§1) The three bacterial strains—Escherichia coli ATCC 25922, Pseudomonas aeruginosa ATCC 27853, and Staphylococcus aureus ATCC 29213—as well as the fungal strain Candida albicans ATCC 90028 were provided by the Department of Clinical Bacteriology, Lund University Hospital. Bacillus subtilis CCUG 163B^T and Bacillus cereus CCUG 7414^T were obtained from the Department of Molecular Sciences, Swedish University of Agricultural Sciences.
(§2) The standard broth microdilution assay was utilized to assess the MIC of designed peptides according to the guidelines of the Clinical and Laboratory Standards Institute (CLSI). Briefly, bacteria were grown in unbuffered Mueller–Hinton Broth (MHB, VWR International, Leuven, Belgium) as well as buffered (containing 50 mM NaHCO3) medium to the mid-logarithmic phase and were quantified by OD600. The bacterial suspension was diluted in the same medium to reach a final density of 1 × 10^6 colony-forming unit per milliliter (CFU/mL). A volume of 50 µL of the bacterial suspension was added to 96-well plates containing 50 µL of MHB in the absence (viability control) or the presence of the peptides at different concentrations (0.625–80 µM). […] MIC values were derived from 3 sets of independent experiments with different bacterial cultures.

[6] = system: Bacillus cereus CCUG 7414T; assay type: cell-based
Description: as §1, §2

[7] = system: Bacillus subtilis CCUG 163BT; assay type: cell-based; remark: listed apart in the source
Description: as §1
(§3) Antimicrobial activities of the peptides were evaluated using the two-step microdilution assay, which is designed for testing AMPs without activity-inhibiting components. Briefly, bacteria were grown to the mid-logarithmic phase at 37 °C in 3% (w/v) tryptic soy broth (TSB) (Merck KGaA, Darmstadt, Germany). The microbial culture was washed twice by centrifugation and resuspension in 10 mM Tris buffer (pH 7.4 at 37 °C, adjusted by HCl). The microbial suspension was quantified by OD600, diluted, and transferred to 96-well untreated polystyrene microplates prepared with 2-fold serial dilutions of the peptides using 50,000 bacteria per well (all dilutions in Tris buffer). These were incubated for 5 h at 37 °C, after which 5 µL of 20% (w/v) TSB was added to each well and the microplates were re-incubated for an additional 6–12 h (depending on the growth rate of each organism). All MICs presented are the medians from triplicate experiments performed independently.

[8] = biological target: T1, aureolysin from S. aureus (Staphylococcus aureus, UniProt P81177); test: Stability in the presence of the protease aureolysin; assay type: in vitro ADME; conditions: peptide:enzyme 200:1, 37 °C, RP-HPLC-MS
T1 construct: purchased
Description: Peptide stability was also assayed in commercially available Gram-positive, S. aureus protease, aureolysin. […] All the samples were then incubated at 37 °C at different incubation times. The reaction was quenched by acidifying with 5 µL of 0.1% formic acid. The samples were analyzed on MS coupled to RP-HPLC.

[9] = system: E. coli MG1655 wild type and cyclotides-resistant mutants; test: MIC against cyclotide-resistant strains in buffer conditions; assay type: cell-based, Escherichia coli; set-up: unit not given here
Description: (§4) The LL-37 resistant mutants (DA22427 and DA23307) used in this study were derived from Salmonella enterica serovar Typhimurium DA6192, wild-type and cyclotides-resistant mutants (DA54114 and DA57107) were derived from E. coli MG1655 (wild type) and were kindly provided by Department of Medical Biochemistry and Microbiology, Uppsala University.
(§5) MIC measurements were performed in 20 mM sodium phosphate buffer (PBS), supplemented with 0.1% TSB in 96-well plates (round bottom, Nunc A/S, Roskilde, Denmark) in a total volume of 100 µL. The overnight cultures were diluted 5 × 10^5 CFU/mL in the same medium and 90 µL was transferred into the plates containing 10 µL of 2-fold diluted peptides. […] At least two independent experiments were performed with two technical replicates. In cyclotides, resistant mutant average MIC was reported.

[10] = system: Salmonella enterica serovar Typhimurium DA6192 wild type and LL-37-resistant mutants (waaY, phoP); test: MIC against LL-37-resistant strains in buffer conditions; assay type: cell-based; set-up: unit not given here; conditions: 20 mM sodium phosphate buffer with 0.1% TSB, 16 to 20 h, 37 °C
Description: as §4, §5

[11] = system: Pseudomonas aeruginosa ATCC 27853; assay type: cell-based; conditions: ATCC 27853, 24 h
Description: as §1, §2

[12] = system: Escherichia coli ATCC 25922; assay type: cell-based; conditions: ATCC 25922, 24 h
Description: as §1, §2

[13] = system: Bacillus cereus CCUG 7414T; assay type: cell-based; conditions: CCUG 7414, 5 h
Description: as §1, §3

aureolysin = test: commercially available Gram-positive, S. aureus protease, aureolysin; conditions: 37 °C, up to 24 h
[14] = E. coli DA54114 cyclotide-resistant mutant, sodium phosphate buffer with 0.1% TSB, average MIC
[15] = E. coli DA57107 cyclotide-resistant mutant, sodium phosphate buffer with 0.1% TSB, average MIC
[16] = E. coli WT (MG1655), 20 mM sodium phosphate buffer with 0.1% TSB, 16 to 20 h, 37 °C
[17] = S. typhimurium phoP LL-37-resistant mutant
[18] = S. typhimurium waaY LL-37-resistant mutant

T1 sequence (P81177 209-509): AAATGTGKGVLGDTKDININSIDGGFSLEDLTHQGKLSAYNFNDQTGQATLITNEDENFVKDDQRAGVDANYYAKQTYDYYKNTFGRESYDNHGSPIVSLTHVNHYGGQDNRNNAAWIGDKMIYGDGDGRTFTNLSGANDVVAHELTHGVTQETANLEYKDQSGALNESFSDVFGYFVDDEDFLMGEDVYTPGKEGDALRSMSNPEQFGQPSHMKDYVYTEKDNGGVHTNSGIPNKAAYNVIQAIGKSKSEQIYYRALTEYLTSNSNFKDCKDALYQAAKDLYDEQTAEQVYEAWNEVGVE

Compound | MIC [9, 14] | MIC [9, 15] | MIC [9, 16] | MIC ([10]; S. typhimurium WT (DA6192)) | MIC [10, 17] | MIC [10, 18] | MIC [11] [µM] | MIC ([5]; CCUG 163, 24 h) [µM] | MIC [12] [µM] | MIC ([6]; CCUG 7414, 24 h) [µM] | MIC ([7]; CCUG 163, 5 h) [µM] | also measured
CC[C@H](C)[C@H](NC(=O)[C@H](CCCCN)NC(=O)[C@H](CCC(=O)O)NC(=O)[C@H](CCCCN)NC(=O)[C@H](CO)NC(=O)[C@H](CCCCN)NC(=O)[C@H](CCCNC(=N)N)NC(=O)[C@H](Cc1ccccc1)NC(=O)[C@H](Cc1ccccc1)NC(=O)[C@H](CC(=O)O)NC(=O)CNC(=O)[C@H](CC(C)C)NC(=O)[C@@H](N)CC(C)C)C(=O)NCC(=O)N[C@@H](CCCCN)C(=O)N[C@@H](CCC(=O)O)C(=O)N[C@@H](Cc1ccccc1)C(=O)N[C@@H](CCCCN)C(=O)N[C@@H](CCCNC(=N)N)C(=O)N[C@H](C(=O)N[C@H](C(=O)N[C@@H](CCC(N)=O)C(=O)N[C@@H](CCCNC(=N)N)C(=O)N[C@H](C(=O)N[C@@H](CCCCN)C(=O)N[C@@H](CC(=O)O)C(=O)N[C@@H](Cc1ccccc1)C(=O)N[C@@H](CC(C)C)C(=O)N[C@@H](CCCNC(=N)N)C(=O)N[C@@H](CC(N)=O)C(=O)N[C@@H](CC(C)C)C(=O)N[C@H](C(=O)N1CCC[C@H]1C(=O)N[C@@H](CCCNC(=N)N)C(=O)N[C@H](C(=O)N[C@@H](CCC(=O)O)C(=O)N[C@@H](CO)C(=O)O)[C@@H](C)O)C(C)C)[C@@H](C)CC)C(C)C)[C@@H](C)CC [LL-37] | – | – | – | – | – | – | – | – | – | – | – | recovery during the precipitation step of the serum stability assay ([1]; diluted human serum): very low; hemolysis [2]: 19–23%; MIC [3]: > 80 µM; MIC [4]: > 80 µM; MIC ([5]; B. subtilis, MHB, Muller-Hinton broth (rich media, unbuffered)): > 80 µM; MIC ([6]; B. cereus, MHB, Muller-Hinton broth (rich media, unbuffered)): > 80 µM; MIC ([7]; B. subtilis, Control: two-step microdilution assay in Tris buffer 10 mM without salts): 1.25 µM; time to hydrolysis of the Leu31-Val32 peptide bond by aureolysin [8]: ≤ 5 min
KRIVKRIKAFLR [KR-12 (Q5K,D9A)] | 1 | 1 | 1 | 10 | 10 | 10 | 10 | > 80 | 10 | > 80 | 1.25 | –
KRIVQRIKDFLR [KR-12] | 1 | 1 | 1 | 20 | 20 | 20 | >20 | > 80 | > 20 | > 80 | 5 | time within which the peptide degrades in diluted human serum [1]: ≤ 10 min; MIC [13]: 2.5 µM
Kalata B7 | – | – | – | – | – | – | – | – | – | – | – | time for which the peptide was stable in aureolysin (stable for up to) [8]: ≥ 24 h
LLGDFFRKSKEKIGKEFKRIVQRIKDFLRNLVPRTES | – | – | – | – | – | – | – | – | – | – | – | cleaved bond (aureolysin): Leu31-Val32, first_seen, within the first 5 min
